The assay concerns Gaeumannomyces graminis var. tritici (Ggt). Nature of the assay: In vitro Assay: mycelial growth of Ggt on minimal media agar plates containing test compound. The following applies: Gaeumannomyces graminis, dark, 19-20° C., 4 to 5 days, diameter of mycelial growth; for inhibition at 0.1 ppm: 0.1 ppm in minimal media agar, read-out: In vitro (ppm) 0.1, Percent Inhibition; for inhibition at 1 ppm: 1 ppm in minimal media agar, read-out: In vitro (ppm) 1, Percent Inhibition; for inhibition at 10 ppm: 10 ppm in minimal media agar, read-out: In vitro (ppm) 10, Percent Inhibition. Type of assay: cell-based. In short, it runs like this: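 Ggt mycelial diameter read after 4 to 5 days in darkness at 19-20° C, from three 4-mm plugs placed on Czapek Dox minimal agar containing test compound delivered in acetone. Inhibition expressed as percent versus untreated plates, plug size (4 mm) subtracted from both.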

The source of these data is patent US6410558B1, “Fungicides for the control of take-all disease of plants” (Monsanto Technology LLC, priority 1991, dated 2002).

Molecules are shown by their SMILES. Bounds are passed on as bounds.

The term inhibition denotes the change of the read-out against control, counted positive when it falls. Regarding `CCc1ccc([Si](C)(C)C)c(C(=O)N(CC)CC)c1Cl` [Example 85, N,N-Diethyl-2-chloro-3-ethyl-6-(trimethylsilyl)benzamide], the inhibition at 0.1 ppm worked out at 7%, the inhibition at 1 ppm is 7% and the inhibition at 10 ppm is 59%.
For `CCN(CC)C(=O)c1c(C)ccc(F)c1[Si](C)(C)C(C)(C)C` [Example 10, 2-[(1,1-Dimethylethyl)dimethylsilyl]-N,N-diethyl-3-fluoro-6-methylbenzamide], the inhibition at 0.1 ppm is under 0%, the inhibition at 1 ppm was under 0% and the inhibition at 10 ppm came to 50%.
In the case of `CCN(CC)C(=O)c1c(I)ccc(F)c1[Si](C)(C)C` [Example 40, N,N-Diethyl-3-fluoro-6-iodo-2-(trimethylsilyl)benzamide], the inhibition at 0.1 ppm is under 0%, the inhibition at 1 ppm was under 0% and the inhibition at 10 ppm amounted to 53%.
As to `CCNC(=O)c1ccsc1[Si](C)(C)C` [Example 70, N-Ethyl-2-(trimethylsilyl)-3-thiophenecarboxamide], the inhibition at 0.1 ppm is under 0%, the inhibition at 1 ppm amounted to 15% and the inhibition at 10 ppm was found to be 44%.
The matching figures for `C#CCNC(=O)c1c(Br)cccc1[Si](C)(C)C` [Example 206, 2-Bromo-N-2-propynyl-6-(trimethylsilyl)benzamide]: 86%, 97% and 100%.
The matching figures for `CCNC(=O)c1c([Si](C)(C)C)ccc(C(C)=O)c1Cl` [Example 243, 3-Acetyl-2-chloro-N-ethyl-6-(trimethylsilyl)benzamide]: 23%, 10% and 83%.
The matching figures for `CCNC(=O)n1cccc1[Si](C)(C)C` [Example 178, N-Ethyl-2-(trimethylsilyl)-1H-pyrrole-1-carboxamide]: under 0%, 15% and 54%.
For the compound `CCNC(=O)c1oc([Si](C)(C)C)cc1[Si](C)(C)C` [Example 251, N-Ethyl-3,5-bis(trimethylsilyl)-2-furancarboxamide], the inhibition at 0.1 ppm was 3%, the inhibition at 1 ppm was 36% and the inhibition at 10 ppm worked out at 97%.
The matching figures for `CC(C)N(O)C(=O)c1sc(Cl)cc1[Si](C)(C)C` [Example 287, 5-Chloro-N-hydroxy-N-(1-methylethyl)-3-(trimethylsilyl)-2-thiophenecarboxamide]: 64%, 71% and 78%.
The matching figures for `C[Si](C)(C)c1cc(Cl)sc1C(=O)NCCOS(C)(=O)=O` [Example 265, 5-Chloro-N-[2[(methylsulfonyl)oxy]ethyl]-3-(trimethylsilyl)-2-thiophenecarboxamide]: 5%, 14% and 100%.
For `CCNC(=O)c1c(Cl)cc(Cl)cc1[Si](C)(C)C` [Example 234, 2,4-Dichloro-N-ethyl-6-(trimethylsilyl)benzamide] the same measures were under 0%, 32% and 81%.
Regarding `C[Si](C)(C)c1cccc(Cl)c1C(=O)NCCCCl` [Example 30, 2-Chloro-N-(3-chloropropyl)-6-(trimethylsilyl)benzamide], the inhibition at 0.1 ppm was under 0%, the inhibition at 1 ppm came out at 60% and the inhibition at 10 ppm worked out at 80%.
The matching figures for `CCNC(=O)c1sc2c(c1[Si](C)(C)C)CCCC2` [Example 274, N-Ethyl-3-(trimethylsilyl)-4,5,6,7-tetrahydrobenzo[B]thiophene-2-carboxamide]: under 0%, 10% and 67%.
For `CCNC(=O)c1sncc1[Si](C)(C)C` [Example 259, N-Ethyl-4-(trimethylsilyl)-5-isothiazolecarboxamide] the same measures were 19%, 11% and 80%.
For `CCNC(=O)c1c(Cl)cccc1-c1ccc2ccccc2c1` [Example 122, 2-Chloro-N-ethyl-6-(2-naphthalenyl)benzamide] the same measures were under 0%, under 0% and 67%.
In the case of `CCN(CC)C(=O)c1cccc(C)c1[Si](C)(C)C` [Example 64, N,N-diethyl-3-methyl-2-(trimethylsilyl)benzamide], the inhibition at 0.1 ppm was 20%, the inhibition at 1 ppm was 14% and the inhibition at 10 ppm amounted to 31%.
For `CCc1cccc([Si](C)(C)C)c1C(=O)N(CC)CC` [Example 44, N,N,2-Triethyl-6-(trimethylsilyl)benzamide] the same measures were under 0%, under 0% and 39%.
Take `CCN(C(C)=O)C(=O)c1c(Cl)cccc1[Si](C)(C)C` [Example 47, N-Acetyl-2-chloro-N-ethyl-6-(trimethylsilyl)benzamide]: the inhibition at 0.1 ppm is under 0%, the inhibition at 1 ppm was under 0% and the inhibition at 10 ppm is 70%.
Turning to `CCNC(=O)c1c(Cl)cccc1[Si](C)(C)C1CC2CCC1C2` (stereo not drawn) [Example 183, 2-(Bicyclo[2.2.1]Hept-2-yldimethylsilyl)-6-chloro-N-ethylbenzamide], the inhibition at 0.1 ppm worked out at 24%, the inhibition at 1 ppm is 35% and the inhibition at 10 ppm is 56%.
For `CCNC(=O)c1cnn(C)c1[Si](C)(C)C` [Example 288, N-Ethyl-1-methyl-5-(trimethylsilyl)-1H-pyrazole-4-carboxamide] the same measures were under 0%, under 0% and 53%.
The matching figures for `CCNC(=O)c1c([Si](C)(C)C)ccc(C)c1Cl` [Example 230, 2-Chloro-N-ethyl-3-methyl-6-(trimethylsilyl)benzamide]: 88%, 96% and 96%.
For `CCN(CC)C(=O)c1c(C(F)F)cccc1[Si](C)(C)C` [Example 97, 2-(Difluoromethyl)-N,N-diethyl-6-(trimethylsilyl)benzamide] the same measures were 7%, 70% and 100%.
As to `CCNC(=O)c1c(Cl)cccc1C(C)(C)C` [Example 285, 2-Chloro-N-ethyl-6-(1,1-dimethylethyl)benzamide], the inhibition at 0.1 ppm is under 0%, the inhibition at 1 ppm is 50% and the inhibition at 10 ppm was found to be 75%.
In the case of `CCNC(=O)c1c(F)cccc1C1(C)CCCC1` [Example 123, N-Ethyl-2-fluoro-6-(1-methylcyclopentyl)benzamide], the inhibition at 0.1 ppm was 11%, the inhibition at 1 ppm is 78% and the inhibition at 10 ppm came out at 89%.
The matching figures for `COc1cc(CNC(=O)c2c(Cl)cccc2[Si](C)(C)C)cc(OC)c1OC` [Example 140, 2-Chloro-N-[(3,4,5-trimethoxyphenyl)methyl]-6-(trimethylsilyl)benzamide]: 19%, 19% and 81%.
For `C[Si](C)(C)c1cccc(Cl)c1C(=O)NC1CCC1` [Example 163, 2-Chloro-N-cyclobutyl-6-(trimethylsilyl)benzamide] the same measures were 24%, 85% and 100%.
As for `CCNC(=O)c1sccc1[Si](C)(C)C` [Example 248, N-Ethyl-3-(trimethylsilyl)-2-thiophenecarboxamide], the inhibition at 0.1 ppm came out at 10%, the inhibition at 1 ppm was 10% and the inhibition at 10 ppm was found to be 100%.
As to `C[Si](C)(C)c1cccc(Cl)c1C(=O)NC(c1ccccc1)n1nnc2ccccc21` (stereo not drawn) [Example 170, N-(1H-Benzotriazol-1-ylphenylmethyl)-2-chloro-6-(trimethylsilyl)benzamide], the inhibition at 0.1 ppm was 12%, the inhibition at 1 ppm stood at 9% and the inhibition at 10 ppm was 63%.
The matching figures for `CCNC(=O)c1cc([N+](=O)[O-])ccc1[Si](C)(C)C` [Example 214, N-Ethyl-5-nitro-2-(trimethylsilyl)benzamide]: 3%, 6% and 77%.
For `CCNC(=O)c1c(Cl)cccc1-c1ccccc1C` [Example 72, 3-Chloro-N-ethyl-2′-methyl-[1,1′-biphenyl]-2-carboxamide] the same measures were under 0%, 59% and 69%.
`CC(C)CNC(=O)c1c(Cl)cccc1[Si](C)(C)C` [Example 162, 2-Chloro-N-(2-methylpropyl)-6-(trimethylsilyl)benzamide]: the inhibition at 0.1 ppm came out at 3%, the inhibition at 1 ppm was under 0% and the inhibition at 10 ppm was determined as 57%.
For the compound `CCNC(=O)c1c([Si](C)(C)C)csc1Cl` [Example 177, 2-Chloro-N-ethyl-4-(trimethylsilyl)-3-thiophenecarboxamide], the inhibition at 0.1 ppm was determined as 11%, the inhibition at 1 ppm was determined as 19% and the inhibition at 10 ppm was determined as 100%.
The matching figures for `CCN(CC)C(=O)c1c(C(=O)OC(C)C)ccc(F)c1[Si](C)(C)C` [Example 43, 2-[(Diethylamino)carbonyl]-4-fluoro-3-(trimethylsilyl)benzoic acid, 1-methylethyl ester]: under 0%, under 0% and 63%.
